Data from patent US12252492B2, “Substituted fused pyrrolo-diazepinones and uses thereof” (Northwestern University, priority 2018, dated 2025).

What was measured:
Format in all cases: cell-based, human
OVCAR-4 = assay: NCI60 one-dose screen, OVCAR-4; details: OVCAR-4 (Ovarian Cancer); NCI 60 one-dose, 10^-5 M
Description: (§1) Anti-cancer activity screening of all compounds was performed by the NCI Developmental Therapeutics Program (DTP) through their NCI60 screening initiative. Assay details can be found at the website dtp.cancer.gov/discovery_development/nci-60/methodology.htm. Information from this website is reproduced here for convenience.
(§2) As of early 2007 all compounds submitted to the NCI 60 Cell screen are tested initially at a single high dose (10^-5 M) in the full NCI 60 cell panel. Only compounds which satisfy pre-determined threshold inhibition criteria in a minimum number of cell lines will progress to the full 5-dose assay. The threshold inhibition criteria for progression to the 5-dose screen was selected to efficiently capture compounds with anti-proliferative activity based on careful analysis of historical DTP screening data. The threshold criteria may be updated as additional data becomes available.
(§3) The One-dose data will be reported as a mean graph of the percent growth of treated cells and will be similar in appearance to mean graphs from the 5-dose assay. […]
(§4) Following drug addition, the plates are incubated for an additional 48 h at 37° C., 5% CO2, 95% air, and 100% relative humidity. […] Bound stain is subsequently solubilized with 10 mM trizma base, and the absorbance is read on an automated plate reader at a wavelength of 515 nm. […]

NCI-H23 = assay: NCI60 one-dose screen, NCI-H23; details: NCI-H23 (Non-Small Cell Lung Cancer); NCI 60 one-dose, 10^-5 M
Description: as §1, §2, §3, §4

NCI/ADR-RES = assay: NCI60 one-dose screen, NCI/ADR-RES; details: NCI/ADR-RES (Ovarian Cancer); NCI 60 one-dose, 10^-5 M
Description: as §1, §2, §3, §4

MALME-3M = assay: NCI60 one-dose screen, MALME-3M; details: MALME-3M (Melanoma); NCI 60 one-dose, 10^-5 M
Description: as §1, §2, §3, §4

M14 = assay: NCI60 one-dose screen, M14; details: M14 (Melanoma); NCI 60 one-dose, 10^-5 M
Description: as §1, §2, §3, §4

SK-MEL-2 = assay: NCI60 one-dose screen, SK-MEL-2; details: SK-MEL-2 (Melanoma); NCI 60 one-dose, 10^-5 M
Description: as §1, §2, §3, §4

Compound | Growth Percent (OVCAR-4) [%] | Growth Percent (NCI-H23) [%] | Growth Percent (NCI/ADR-RES) [%] | Growth Percent (MALME-3M) [%] | Growth Percent (M14) [%] | Growth Percent (SK-MEL-2) [%]
CC(=O)N1c2ccccc2NC2=C(C(=O)N(C)C2(C)C)C1c1ccccc1 (stereo not drawn) [NUCC-60872] | 55.16 | 50.21 | 101.74 | 44.26 | 21.48 | 8.92
CC(=O)N1c2ccccc2NC2=C(C(=O)N(Cc3ccccc3)C2(C)C)C1c1ccco1 (stereo not drawn) [NUCC-608455] | 48.83 | 20.85 | 82.92 | 69.89 | −13.58 | 16.91
